Several values for one entry are separate records, joined by “and”; a condition that tells them apart may be missing. Equal values may be shown once.

Holding throughout (format): cell-based, human
One test deals with HeLa cells. Description: siRNA library screen for sensitization to Cisplatin (Alamar Blue growth). As to the method: The primary screen with each agent was performed in HeLa cells, which are TP53 deficient. HeLa cells were transfected with siRNA pools, and the drugs were added 4 hrs later. […] The growth of cells +/−drug was assessed at 72 hrs post-transfection.
siRNA transfection was carried out as follows: one day prior to transfection, 50 microliters of a chosen cell line, e.g., cervical cancer HeLa cells (ATCC, Cat. No. CCL-2), grown in DMEM/10% fetal bovine serum (Invitrogen, Carlsbad, Calif.) to approximately 90% confluency were seeded in a 384-well tissue culture plate at 450 cells/well. For each transfection 20 microliters of OptiMEM (Invitrogen) was mixed with 2 microliter of siRNA (Dharmacon, Lafayette, Colo.) from a 10 micromolar stock. For each transfection, a ratio of 20 microliter of OptiMEM was mixed with 1 microliter of Oligofectamine reagent (Invitrogen) and incubated 5 minutes at room temperature. Then 20-microliter OptiMEM/Oligofectamine mixture was dispensed into each well of the 96 well plate with the OptiMEM/siRNA mixture, mixed and incubated 15-20 minutes at room temperature.
The internal environment of the proliferating cell is more reduced than that of non-proliferating cells.
(Resazurin is reduced to fluorescent resorufin, in cell work by metabolically active cells.)

The test system of another test is TP53-negative A549 cells. Description: Alamar Blue cell growth, cisplatin after siRNA supertransfection, TP53-negative cells (FIG. 20). As to the method:
A549 cells stably transfected with empty vector (pRS, left panel) or an shRNA targeting TP53 (pRS-TP53, right panel) were supertransfected with siRNAs to luciferase, BRCA1, or BRCA2 prior to treatment with the DNA damaging agent, cisplatin. Cell growth was measured 72 hrs post-transfection using Alamar Blue.
The cell lines used in this example were HeLa cells, TP53-positive A549 cells and TP53-negative A549 cells. The matched pair of TP53 positive and negative cells were generated by stable transfection of short hairpin RNAs (shRNAs) targeting TP53 (monthly highlt highlight, November 2003). […]
After 4 hours, 100 microliter/well of DMEM/10% fetal bovine serum with or without DNA damage agents was added to each well to reach the final concentration of each agents as described above. […] Samples from the 6-well plates were analyzed for cell cycle profiles and samples from 96-well plates were analyzed for cell growth with Alamar Blue assay.
For Alamar Blue assay, the media from the 96-well plates was removed, and 100 uL/well complete media containing 10% (vol/vol) alamarBlue reagent (BioSource International, Inc) and 1/100th volume 1M Hepes buffer tissue culture reagent was added. The plates were then incubated 1-4 hours at 37° C. and fluorescence was measured by exciting at 544 nm and detecting emission at 590 nm with […]ax Gemini-Xs Spectrofluorometer (Molceular Devices). […]

For test [1], the system named is TP53 mRNA. The test is described as follows: TP53 knockdown by TaqMan, pRS-p53 shRNA in HCT116 cells. From the text: In another specific embodiment, the invention provides a method for determining synthetic lethality between p53 and CHEK1. Stable clones having p53 gene silenced was generated. The pRS-TP53 1026 shRNA plasmid was deconvoluted from a library plasmid pool for TP53 by transforming bacteria with the pool and looking for clones containing only the plasmid of interest. The sequences used are as follows: pRS-p53 1026 19mer sequence: […] (SEQ ID NO:43); primers for sequence specific PCR: Forward: […] (SEQ ID NO:44), Reverse: […] (SEQ ID NO:45). Plasmids were identified by sequence specific PCR, and confirmed by sequencing. Stable p53-clones were generated by transfecting HCT116 cells using FuGENE 6 (Roche) with the pRS-TP53 1026 plasmid. Cells were split into 10 cm dishes plus 1 ug/ml puromycin 48 hours later, and maintained until colonies were evident (5-7 days). Clones were picked into a 96 well plate, maintained in 1 ug/ml puromycin, and tested for knockdown by TaqMan using the TP53 and hGUS Pre-Developed Assay Reagent (Applied Biosystems). To measure transient knockdown by the pRS-TP53 1026 plasmid, HCT116 cells were transfected using Lipofectamine 2000 (Invitrogen), and RNA harvested 24 hours later. TP53 transcript levels were assessed by TaqMan. […]
Background: Real-time PCR tracks product formation cycle by cycle.

Test [2] has as its system TP53 mRNA. Description: TP53 mRNA silencing in A549 cells stably transfected with pRS-p53. The settings on record: stable A549 pRS-p53 cells versus pRS cells. The procedure: (§1) Next, supertransfection of the CHEK1 siRNA pool into cells stably expressing TP53 shRNAs was evaluated to determine if it could be used to investigate genetic interactions (SL) between these molecules. Matched cell lines +/−TP53 expression were generated by selecting stable clones of A549 lung cancer cell lines containing either empty pRS vector or pRS-p53. […] Both cell lines were then supertransfected with either control luciferase siRNA (luc, 100 nM) or the CHEK1 siRNA pool (100 nM total; 33 nM each of 3 siRNAs) and their cell cycle profiles examined with or without exposure to the DNA damaging agent, doxorubicin (Dox, FIG. 5). Cell cycle profiles of pRS-p53 cells were not appreciably different from those of pRS cells in the absence of Dox.
as §1, with “molecules. […]” for “molecules.”, “Cell cycle profiles of pRS-p53 cells were not appreciably different from those of pRS cells in the absence of Dox.” left out

Another test concerns CHEK1 and TP53 mRNA. The test is described as follows: Competition between stable TP53 shRNA and CHEK1 siRNA pool, TaqMan (FIG. 4A). The settings on record: HCT116 clone A11, siRNA pool 100 nM, 24 hours. As to the method: A pool of three siRNAs targeting CHEK1 was transiently transfected into WT and pRS-p53 stably transfected HCT116 cells (clone A11). CHEK1 and TP53 mRNA levels were measured by Taqman analysis (left and right panels, respectively). […] STK6 and KNSL1 siRNAs were transiently co-transfected into WT SW480 cells and KNSL1 siRNAs were supertransfected into pRS-STK6 stably transfected SW480 cells. STK6 mRNA levels were measured by Taqman analysis. For the left set of bars, STK6 siRNA (10 nM) was used alone or together with one of three different individual KNSL1 siRNAs (10 nM each). […]
To test whether TP53 silencing in HCT116 clone A11 was subject to competition with siRNAs, cells of this clone were supertransfected with a pool of CHEK1-specific siRNAs. […] RNA was harvested 24 hours post transfection and knockdown was assessed by TaqMan analysis using the CHK1 or TP53 and hGUS Pre-Developed Assay Reagent (Applied Biosystems). […] This is in contrast to the observation that two different siRNAs targeting distinct mRNAs compete with each other when transfected together, effectively decreasing the efficacy of one or both of the siRNAs used. pRS and pRS-p53 HCT116 cells were transiently transfected with siRNA pools for ˜800 genes (see Example 3, infra) and measured effects on cellular growth by Alamar Blue assay. […]

Where [3] appears, read: cisplatin, HeLa cell growth, 72 hrs.

For orientation: EC25 means the concentration at which the effect reaches the 25% level. By EC10 is commonly meant the point of the concentration-response curve where the effect stands at 10%. What is called EC50 is the concentration at which the effect is half-maximal. What is called IC50 is the midpoint of a concentration-inhibition curve. A low value points to greater potency in that assay. As for `N.N.[Cl][Pt][Cl]` [cisplatin, cis-Diaminedichloroplatinum], in the test with HeLa cells (400 ng/ml stated to be an <EC25 concentration), the EC25 is above 0.4 µg/mL. Also, in the test with HeLa cells (setting [3]), the EC10 was around 0.1 µg/mL and the EC50 was around 0.4 µg/mL. The IC50 in the test with TP53-negative A549 cells (cells transfected with BRCA1 or BRCA2 siRNAs) was around 0.1 nM. This compound gave an IC50 in the test with TP53-negative A549 cells (cells transfected with control siRNA (luciferase)) of around 1 nM.
GACTCCAGTGGTAATCTAC [pRS-p53]: the “TP53 mRNA silencing” value in the test with TP53 mRNA [1] (stable clones A5 and A11) was above 95%; with TP53 mRNA [1] (transient transfection, 24 hr post transfection), around 80%; in the test with TP53 mRNA [2], > 90% and ~90%. Besides, in the test with CHEK1 and TP53 mRNA, the “competitive inhibition of silencing between TP53 shRNA and CHEK1 siRNA pool” value was “does not affect”.

Values taken from patent US20050181385A1, “Synthetic lethal screen using RNA interference” (priority 2003, published 2005).
